Experimental data reported in patent publication US20250381110A1, “SKIN CARE COMPOSITION AND METHOD OF USING THE SAME” (THE PROCTER & GAMBLE COMPANY, priority 2024, published 2025).
Counter-ions that a name gives are not always drawn.

Test system: p62-dependent mitophagy
Assay: Luciferase-p62 assay (Fluc-p62 clearance) in mouse embryonic fibroblasts
Format: cell-based
Settings: for Mean Luminescence: Luciferase-p62 assay, mouse embryonic fibroblasts (MEFs), compounds at 10 μM; for % Activity over baseline: percentage of Luciferase-p62 clearance relative to baseline (mean luminescence in the absence of doxycycline induction); for % Activity over baseline / % Activity relative to Rapamycin: MEFs, 10 μM; for % Activity relative to Rapamycin: percentage of activity relative to rapamycin tested in the same experiment at the same concentration
Method in brief: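 MEFs with doxycycline-inducible Fluc-p62; after induction, doxycycline removed and cells treated 48 h with compounds at 10 μM. Fluc-p62 clearance, taken as mitophagy, read by ONE-Glo+Tox luciferase with viability. Vehicle (DMSO) as negative control; activity also expressed relative to rapamycin.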

SMILES	Mean Luminescence	% Activity over baseline	% Activity relative to Rapamycin
C[C@@H]1O[C@@H](O[C@H]2C[C@@H](O)[C@]3(CO)[C@H]4[C@H](O)C[C@]5(C)[C@@H](C6=CC(=O)OC6)CC[C@]5(O)[C@@H]4CC[C@]3(O)C2)[C@H](O)[C@H](O)[C@H]1O [Ouabain]	788.34	51.28%	92.39%
COc1c(C)c2c(c(O)c1C/C=C(\C)CCC(=O)OCCN1CCOCC1)C(=O)OC2 [Mycophenolate Mofetil]	594.21	63.28%	114.01%
C[C@H]1[C@H](C)CC[C@]2(C(=O)O)CC[C@]3(C)C(=CC[C@@H]4[C@@]5(C)CC[C@H](O)C(C)(C)[C@@H]5CC[C@]43C)[C@H]12 [Ursolic acid]	905.10	44.06%	79.39%
COc1cc2c(cc1OC)[C@@H](Cc1ccc(O)c(Oc3cc4c(cc3OC)CCN(C)[C@@H]4Cc3ccc(O)cc3)c1)N(C)CC2 [Liensinine]	923.21	42.94%	77.38%
COc1cc(C)c(/C=C/C(C)=C/C=C/C(C)=C/C(=O)O)c(C)c1C [Acitretin]	883.02	45.43%	81.85%
COC(=O)[C@H]1[C@H]2C[C@@H]3c4[nH]c5cc(OC)ccc5c4CCN3C[C@H]2C[C@@H](OC(=O)c2cc(OC)c(OC)c(OC)c2)[C@@H]1OC [Reserpine hydrochloride]	810.13	49.93%	89.97%
C[C@@H]1CC[C@@]2(OC1)O[C@H]1C[C@H]3[C@@H]4CC=C5C[C@@H](O)CC[C@]5(C)[C@H]4CC[C@]3(C)[C@H]1[C@@H]2C [Diosgenin]	903.89	44.14%	79.53%
COc1cc(CNC(=O)CCCC/C=C/C(C)C)ccc1O [Capsaicin]	832.02	48.58%	87.53%
COC(=O)/C=C/C(=O)OC [Dimethyl Fumarate]	786.79	51.38%	92.57%
CC(=O)CCC(=O)O [Levulinic acid]	771.58	52.32%	94.26%
CC1=C(/C=C/C(C)=C/C=C/C(C)=C/C(=O)O)C(C)(C)CCC1 [Tretinoin (Aberela)]	773.39	52.20%	94.06%
CO[C@H]1C[C@H](O[C@H]2CC[C@@]3(C)[C@H](CC[C@@H]4[C@@H]3CC[C@]3(C)[C@@H](C5=CC(=O)OC5)[C@@H](OC(C)=O)C[C@]43O)C2)O[C@@H](C)[C@@H]1O [Oleandrin]	766.18	52.65%	94.86%
CC(=O)OCC1=C(C(=O)O)N2C(=O)[C@@H](NC(=O)Cc3cccs3)[C@H]2SC1 [Cephalothin]	727.65	55.03%	99.15%
CN1[C@@H]2C[C@@H](OC(=O)[C@H](CO)c3ccccc3)C[C@H]1[C@@H]1O[C@@H]12 [Scopolamine hydrobromide]	937.62	42.05%	75.77%
C=C(CC(=O)O)C(=O)O [Itaconic acid]	640.97	60.39%	108.80%
Nc1nc(N)nc(N)n1 [Melamine]	960.76	40.62%	73.19%
C=C[C@@]1(C)CC(=O)[C@]2(O)[C@@]3(C)[C@@H](O)CCC(C)(C)[C@@H]3[C@H](O)[C@H](OC(C)=O)[C@@]2(C)O1 [Forskolin]	911.32	43.68%	78.70%
Clc1ccccc1C(c1ccccc1)(c1ccccc1)n1ccnc1 [Clotrimazole]	623.22	61.48%	110.78%
Cc1ccc(C(C)C)cc1O [Carvacrol]	937.62	42.05%	75.77%
CCOC(=O)NCCCC(=O)NCCc1ccccc1 [Santacruzamate A (CAY10683)]	972.04	39.93%	71.94%
C=CCCC(=O)O [4-Pentenoic acid]	936.28	42.14%	75.92%
CC(C)=CCC[C@](C)(O[C@@H]1O[C@H](CO)[C@@H](O)[C@H](O)[C@H]1O)[C@H]1CC[C@]2(C)[C@@H]1[C@H](O)C[C@@H]1[C@@]3(C)CC[C@H](O)C(C)(C)[C@@H]3[C@@H](O[C@@H]3O[C@H](CO)[C@@H](O)[C@H](O)[C@H]3O)C[C@]12C [Ginsenoside Rg1]	947.81	41.42%	74.64%

SMILES	Mean Luminescence	% Activity over baseline	% Activity relative to Rapamycin
Nc1ncnc2c1ncn2[C@@H]1O[C@H](COP(=O)(O)O)[C@@H](O)[C@H]1O [Adenosine 5-monophosphate]	890.00	45.00%	81.07%
CSCCC(NC(C)=O)C(=O)O (racemic) [N-Acetyl-DL-methionine]	973.29	39.85%	71.80%
C[C@]12CC[C@@H]3c4ccc(O)cc4CC[C@H]3[C@@H]1C[C@@H](O)[C@@H]2O [Estriol]	784.74	51.50%	92.80%
O=c1ccn([C@@H]2O[C@H](CO)[C@@H](O)[C@H]2O)c(=O)[nH]1 [Uridine]	955.62	40.94%	73.77%
O=C(O)CCNC(=O)c1ccccc1 [Betamipron]	923.38		
CS(=O)(=O)CCNCc1ccc(-c2ccc3ncnc(Nc4ccc(OCc5cccc(F)c5)c(Cl)c4)c3c2)o1 [Lapatinib Ditosylate]	578.14	64.27%	115.80%
CN(Cc1ccc(C(C)(C)C)cc1)Cc1cccc2ccccc12 [Butenafine HCl]	582.45	64.00%	115.32%
CC(C)C[C@H]1C(=O)N2CCC[C@H]2[C@]2(O)O[C@](NC(=O)[C@@H]3C=C4c5cccc6[nH]c(Br)c(c56)C[C@H]4N(C)C3)(C(C)C)C(=O)N12 [Bromocriptine mesylate]	685.00	57.67%	103.90%
Oc1cccc(O)c1O [Pyrogallol]	936.38	42.13%	75.91%
C[C@]12CC[C@@H]3c4ccc(O)cc4CC[C@H]3[C@@H]1CC[C@@H]2O [Estradiol]	768.64	52.50%	94.59%
COc1cc(O)c(CC=C(C)C)c(O)c1C(=O)/C=C/c1ccc(O)cc1 [Xanthohumol]	485.82	69.98%	126.08%
CN1CCN2c3ccccc3Cc3ccccc3C2C1 (stereo not shown) [Mianserin HCl]	960.23	40.66%	73.25%
O=C1C=CC(=O)c2c(O)cccc21 [Juglone]	894.51	44.72%	80.57%
C=CCNC1=C2C[C@@H](C)C[C@H](OC)[C@H](O)[C@@H](C)/C=C(\C)[C@H](OC(N)=O)[C@@H](OC)/C=C\C=C(/C)C(=O)NC(=CC1=O)C2=O [17-AAG (KOS953)]	299.07	81.52%	146.87%
CCN(CC)CC#CCOC(=O)C(O)(c1ccccc1)C1CCCCC1 (stereo not shown) [Oxybutynin chloride]	882.87	45.44%	81.87%
CCC12C=CCN3CC[C@@]4(c5ccc(OC)cc5N(C)[C@H]4[C@@](O)(C(=O)OC)[C@@H]1OC(C)=O)[C@@H]32 (stereo partly shown) [Vindoline]	930.98	42.46%	76.51%
CC[C@H](N)C(=O)O [L(+)-2-Aminobutyric acid]	981.68	39.33%	70.87%
C[C@]12CC[C@@H]3c4ccc(OC(=O)c5ccccc5)cc4CC[C@H]3[C@@H]1CC[C@@H]2O [Estradiol Benzoate]	970.65	40.01%	72.09%
COc1cc(CC(=O)O)ccc1O [Homovanillic acid]	908.95	43.83%	78.96%
O=c1ccn([C@H]2C[C@H](O)[C@@H](CO)O2)c(=O)[nH]1 [Compound 2-Deoxyuridine]	867.92	46.36%	83.53%
CCCCCOC(=O)Nc1nc(=O)n([C@@H]2O[C@H](C)[C@@H](O)[C@H]2O)cc1F [Capecitabine]	918.89	43.21%	77.86%
C#C[C@]1(O)CC[C@H]2[C@@H]3CCC4=CC(=O)CC[C@]4(C)[C@H]3CC[C@@]21C [Ethisterone]	996.32	38.43%	69.24%
